Broadly, the GI50 is the concentration giving 50% growth inhibition. A lower GI50 goes with greater sensitivity of the cells. The term IC50 denotes the concentration needed to halve the response being measured.

We go through nine molecules from patent publication US20250179059A1 (The Regents of the University of California, priority 2021, published 2025).

Where two headings read alike, the source gives them in different places.

Assay [1] has as its system human SKM-1 acute myeloid leukemia cells. Briefly: SKM-1 antiproliferation cell-based assay (ATPlite). As to conditions: Homo sapiens. A digest of the protocol:
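Log-phase cells in RPMI 1640/15% FBS were seeded at 34722 cells/mL and exposed for 4 days to nine-concentration DMSO serial dilutions in triplicate. Viability was read as ATP luminescence (ATPlite 1step), and IC50 values came from variable-slope non-linear regression.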

Assay [2] addresses T1, human BRD4 bromodomain II (Homo sapiens, UniProt O60885).
T1 construct: human BRD4 bromodomain II [based on Genbank NM_058243, residues 349-460]; host or cells: E. coli
In words: Bromodomain binding assay (AlphaScreen), BRD4 BDII. An outline of the steps: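 AlphaScreen competition with biotinylated H4 peptide (aa 1-21, K5/K8/K12/K16Ac), using nickel-chelate acceptor and streptavidin donor beads. Targets were His6-BRD4 BDI (44-170) or BDII (349-460), with a 30 min compound preincubation over a 10-point 3-fold series. IC50 was fitted from percentage peptide binding.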

Where [3] appears, read: SKM-1, 96 h, SKM-1 antiproliferation assay, 4 days, Table C2.
The mark [4] stands for this setting: AlphaScreen assay, Table C2, read-out: BRD4 BDII IC50.
The mark [5] stands for this setting: SKM-1, SKM-1 antiproliferation assay.
The mark [6] stands for this setting: BRD4 BDII AlphaScreen assay, read-out: BRD4 BD2 IC50.

Molecule `[2H]C([2H])([2H])n1ccn(-c2ccc(-c3cc(F)cc(-c4ccnc(N5CCC[C@H](NC)C5)c4)c3O)cc2Cl)c1=O` [Example 456, (S)-1-(3-chloro-5′-fluoro-2′-hydroxy-3′-(2-(3-(methylamrno)piperidin-1-yl)pyridin-4-yl)-[1,1′-biphenyl]-4-yl)-3-deuteromethyl-1H-imidazol-2(3H)-one] displayed a GI50 in assay [1] (setting [3]) of 0.3 to 30 nM. In addition, the half-maximal inhibitory concentration (IC50) in assay [2] (setting [4]) was 0.01 to 1 nM.
In assay [1] (setting [3]), `Cn1cc(-c2cc(F)cc(-c3ccc(-n4ccn(C)c4=O)c(Cl)c3)c2O)cc(N2CC[C@H](N)C2)c1=O` [Example 422, (S)-3-(3-aminopyrrolidin-1-yl)-5-(3′-chloro-5-fluoro-2-hydroxy-4′-(3-methyl-2-oxo-2,3-dihydro-1H-imidazol-1-yl)-[1,1′-biphenyl]-3-yl)-1-methylpyridin-2(1H)-one] showed a GI50 of 0.3 to 30 nM. Further, the IC50 in assay [2] (setting [4]) was 0.01 to 1 nM.
The molecule `CNC(=O)Nc1ccc(-c2cc(F)cc(-c3cccc(N4CCN(C(C)(C)C)CC4)c3)c2O)cc1Cl` [Example 921, 1-(3″-(4-(tert-Butyl)piperazin-1-yl)-3-chloro-5′-fluoro-2′-hydroxy-[1,1′:3′,1″-terphenyl]-4-yl)-3-methylurea] showed a GI50 in assay [1] (setting [5]) of 300 to 3000 nM. Besides, in assay [2] (setting [6]), the IC50 lay within 10 to 100 nM.
For `Cn1ccn(-c2ccc(-c3cc(F)cc(-c4ccnc(N5CCN6CCCC6C5)c4)c3O)cc2Cl)c1=O` (stereo not drawn) [Example 625, 1-(3-chloro-5′-fluoro-3′-(2-(hexahydropyrrolo[1,2-a]pyrazin-2(1H)-yl)pyridin-4-yl)-2′-hydroxy-[1,1′-biphenyl]-4-yl)-3-methyl-1H-imrdazol-2(3H)-one], in assay [1] (setting [3]), the GI50 was in the range of 0.3 to 30 nM. Further, the IC50 in assay [2] (setting [4]) was in the range of 0.01 to 1 nM.
In the case of `CC(C)N1CCN(c2cc(F)cc(-c3cc(F)cc(-c4ccc(-n5ccn(C)c5=O)c(Cl)c4)c3O)c2)CC1` [Example 713, 1-(3-chloro-3″,5′-difluoro-2′-hydroxy-5″-(4-isopropylpiperazin-1-yl)-[1,1′:3′,1″-terphenyl]-4-yl)-3-methyl-1H-imidazol-2(3H)-one], in assay [1] (setting [3]), the GI50 is 0.3 to 30 nM. Further, the IC50 in assay [2] (setting [4]) was in the range of 0.01 to 1 nM.
In turn, `CC(C)N1CCC[C@]12CCN(c1cccc(-c3cc(F)cc(-c4ccc(-n5ccn(C)c5=O)c(Cl)c4)c3O)c1)C2` [Example 967, (R)-1-(3-chloro-5′-fluoro-2′-hydroxy-3″-(1-isopropyl-1,7-diazaspiro[4.4]nonan-7-yl)-[1,1′:3′,1″-terphenyl]-4-yl)-3-methyl-1,3-dihydro-2H-imidazol-2-one] came in with a concentration for 50% growth inhibition (GI50) in assay [1] (setting [5]) of 30 to 300 nM. In addition, the IC50 in assay [2] (setting [6]) was 1 to 10 nM.
In assay [1] (setting [3]), `Cn1ccn(-c2ccc(-c3cc(F)cc(-c4cncc(N5CC[C@H](N)C5)c4)c3O)cc2Cl)c1=O` [Example 484, (S)-1-(3′-(5-(3-aminopyrrolidin-1-yl)pyridin-3-yl)-3-chloro-5′-fluoro-2′-hydroxy-[1,1′-biphenyl]-4-yl)-3-methyl-1H-imidazol-2(3H)-one] displayed a GI50 of 0.3 to 30 nM. In addition, in assay [2] (setting [4]), the IC50 fell in the range of 1 to 10 nM.
In assay [1] (setting [5]), `Cc1cc(-c2ccc(-n3ccn(C)c3=O)c(Cl)c2)c(O)c(-c2ccnc(N3CC(F)(F)[C@@](C)(O)C3)c2)n1` [Example 1036, (S)-1-(2-chloro-4-(2′-(3,3-difluoro-4-hydroxy-4-methylpyrrolidin-1-yl)-3-hydroxy-6-methyl-[2,4′-bipyridin]-4-yl)phenyl)-3-methyl-1,3-dihydro-2H-imidazol-2-one] displayed a GI50 of 30 to 300 nM. Further, in assay [2] (setting [6]), the concentration for half-maximal inhibition (IC50) lay in the range of 1 to 10 nM.
Molecule `CN1CCN(c2ccc(-c3cc(F)cc(-c4cc(N5CCNCC5)c5cc[nH]c5c4)c3O)cc2Cl)C1=O` [Example 460, 1-(3-chloro-5′-fluoro-2′-hydroxy-3′-(4-(piperazin-1-yl)-1H-indol-6-yl)-[1,1′-biphenyl]-4-yl)-3-methylimidazolidin-2-one] had a GI50 in assay [1] (setting [3]) of 0.3 to 30 nM. The IC50 in assay [2] (setting [4]) fell in the range of 1 to 10 nM.
